Columns and labels:
[1] = system: hiPSC-CMs (iCell2 Cardiomyocytes) 2D monolayers; assay: Membrane potential (action potential) recordings with FluoVolt voltage-sensitive dye on the CellOPTIQ platform; assay type: cell-based, human; conditions: for activity at 0.01 µM / activity at 0.03 µM / activity at 0.1 µM / activity at 0.3 µM: Homo sapiens, Cardiomyocyte, 0.5 h, 30 min, delta over DMSO 0.1%
Summary of the method: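 iCell2 hiPSC-CM monolayers (50,000 cells/well on fibronectin or Matrix Plus, days 5–6) were loaded with FluoVolt (1:1000, 20 min, 37 °C) and imaged at 37 °C with 470 nm excitation and 510–560 nm emission sampled at 10 kHz. Spontaneous action potentials were recorded for 10 s at baseline and 30 min after drug, with one of four concentrations per well (n = 8).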

[2] = system: hiPSC-CMs (iCell2 Cardiomyocytes) 2D monolayers; assay: Contractility measurements using video imaging (ContractilityTool / MUSCLEMOTION); assay type: cell-based, human; conditions: for activity at 0.01 µM / activity at 0.03 µM / activity at 0.1 µM / activity at 0.3 µM: Homo sapiens, Cardiomyocyte, 0.5 h, 30 min, delta over DMSO 0.1%
Summary of the method: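 Monolayers on fibronectin or Matrix Plus coating, tested on days 5–6 in serum-free medium. Four concentrations, one per well, n = 8, with vehicle control.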

[3] = 300 nM, both 2D systems, positive control
[4] = FM monolayer, read-out: APD30 (%DD)
[5] = FM monolayer, read-out: APD90 (%DD)
[6] = FM monolayer, read-out: CL (%DD)
[7] = FM monolayer, read-out: Trise (%DD)
[8] = MM monolayer, read-out: APD30 (%DD)
[9] = MM monolayer, read-out: APD90 (%DD)
[10] = MM monolayer, read-out: CL (%DD)
[11] = MM monolayer, read-out: Trise (%DD)
[12] = FM monolayer, read-out: CtAmp (%DD)
[13] = FM monolayer, read-out: CtD50 (%DD)
[14] = MM monolayer, read-out: CtAmp (%DD)
[15] = MM monolayer, read-out: CtD50 (%DD)

## CC(C)NCC(O)c1ccc(O)c(O)c1 (stereo not shown) [Isoprenaline]
[1]; [3]
  effect on APD90: decreased
  effect on spontaneous beat rate: increased
[1]; [4]
  activity at 0.01 µM: 97 ± 2%
  activity at 0.03 µM: 85 ± 1.7%
  activity at 0.1 µM: 68 ± 0.8%
  activity at 0.3 µM: 62 ± 1%
[1]; [5]
  activity at 0.01 µM: 94 ± 1.9%
  activity at 0.03 µM: 77 ± 0.6%
  activity at 0.1 µM: 60 ± 1%
  activity at 0.3 µM: 52 ± 0.5%
[1]; [6]
  activity at 0.01 µM: 90 ± 1.4%
  activity at 0.03 µM: 74 ± 0.6%
  activity at 0.1 µM: 56 ± 0.6%
  activity at 0.3 µM: 49 ± 0.6%
[1]; [7]
  activity at 0.01 µM: 80 ± 7.3%
  activity at 0.03 µM: 97 ± 8.6%
  activity at 0.1 µM: 106 ± 4.5%
  activity at 0.3 µM: 106 ± 8.1%
[1]; [8]
  activity at 0.01 µM: 92 ± 0.8%
  activity at 0.03 µM: 83 ± 0.9%
  activity at 0.1 µM: 68 ± 1.5%
  activity at 0.3 µM: 62 ± 0.8%
[1]; [9]
  activity at 0.01 µM: 96 ± 0.8%
  activity at 0.03 µM: 86 ± 1%
  activity at 0.1 µM: 68 ± 1.2%
  activity at 0.3 µM: 61 ± 0.9%
[1]; [10]
  activity at 0.01 µM: 90 ± 0.9%
  activity at 0.03 µM: 77 ± 0.6%
  activity at 0.1 µM: 63 ± 0.8%
  activity at 0.3 µM: 56 ± 0.8%
[1]; [11]
  activity at 0.01 µM: 146 ± 13.3%
  activity at 0.03 µM: 115 ± 12.9%
  activity at 0.1 µM: 93 ± 5.5%
  activity at 0.3 µM: 129 ± 10.9%
[1]; both FM and MM monolayers, concentration not given
  effect on APD90 (in words): significantly decreased
[2]; [3]
  effect on contraction duration: decreased
[2]; [12]
  activity at 0.01 µM: 94 ± 5.2%
  activity at 0.03 µM: 90 ± 8.3%
  activity at 0.1 µM: 125 ± 17.9%
  activity at 0.3 µM: 68 ± 8.5%
[2]; [13]
  activity at 0.01 µM: 94 ± 1%
  activity at 0.03 µM: 88 ± 4.6%
  activity at 0.1 µM: 76 ± 2.8%
  activity at 0.3 µM: 58 ± 1.6%
[2]; [14]
  activity at 0.01 µM: 123 ± 14.4%
  activity at 0.03 µM: 112 ± 11.7%
  activity at 0.1 µM: 121 ± 16.1%
  activity at 0.3 µM: 105 ± 14.9%
[2]; [15]
  activity at 0.01 µM: 96 ± 2.3%
  activity at 0.03 µM: 88 ± 2.3%
  activity at 0.1 µM: 68 ± 2.7%
  activity at 0.3 µM: 57 ± 1.8%
